Measurements: patent publication US20020049205A1, “Pyrazole antimicrobial agents” (priority 2000, published 2002)
pIC50: −log10 of the molar value.

What was measured:
[1] = target: T1, Sigma^70 saturated E. coli RNA Polymerase (Escherichia coli, UniProt P0A7Z4+P0A800+P0A8T7+P0A8V2); assay: IC50 assay, inhibition of RNA polymerase; assay type: biochemical
T1 construct: purchased Epicenter
Protocol: One common assay involves evaluation of the compounds as RNA polymerase inhibitors. In this assay, buffer (250 mM KCl, 5% glycerol, 10 mM MgCl2, 0.1 mg/ml BSA) is combined with 6 mM β-M.E., PT5 DNA template, and 1.3 μg/rxn Sigma^70 saturated E. coli RNA Polymerase (Epicenter). The compound is then added in a manner not to exceed 5% DMSO. Nucleotide triphosphates are then added at the following concentration: 250 μM ATP, CTP and UTP with 100 μM cold CTP and 50 μM α-^32P CTP. The mixture is incubated for 10 min at about 37° C. A [2×] loading buffer is added and the mixture is then run on a 6% urea denaturing PAGE until bromophenol blue reaches the edge of plate. The gel is soaked (about 20 minutes in 10% MeOH and 10% acetic acid, to remove urea), then dried (about 55 minutes at about 85° C. (BioRad Gel Drier)) and exposed to a Phospho Imaging Plate for 1 hour. The plate is then read on a Fujix Bas1000 Imaging System and quantified using MacBas v2.0 software. An IC50 (in μM) can be calculated as the concentration of a drug which reduces the enzyme activity to 50% of the control.
In this assay, buffer (250 mM KCl, 5% Glycerol, 10 mM MgCl2, 0.1 mg/ml bovine serum albumin (BSA)) is combined with 6 mM β-mercaptoethanol, PT5 DNA template, and 1.3 μg/rxn Sigma^70 saturated E. coli RNA Polymerase (obtained from Epicenter). The compound is then added in a manner not to exceed 5% DMSO. Nucleotide triphosphates are then added at the following concentration: 250 μM ATP, CTP and UTP with 100 μM cold CTP and 50 μM α-32P CTP. The mixture is incubated for 10 min at about 37° C. A [2×] loading buffer is added and the mixture is then run on a 6% urea denaturing PAGE until bromophenol blue reaches the edge of plate. The gel is soaked (about 20 minutes in 10% MeOH and 10% acetic acid, to remove urea), then dried (about 55 minutes at about 85° C. (BioRad Gel Drier)) and exposed to a Phospho Imaging Plate for 1 hour. The plate is then read on a Fujix Bas1000 Imaging System and quantified using MacBas v2.0 software. An IC50 (in μM) can be calculated as the concentration of a compound of the invention that reduces the enzyme activity to 50% of the control. For the sake of clarity, the above-described assay is used to determine the IC50 values referenced in the claims. However, the skilled artisan will recognize that other methods can be used to determine an IC50 value.

[2] = system: B. su; assay: Minimum Inhibitory Concentration assay, B. su; assay type: cell-based; details: LB medium, 16 hours, 37° C.
Protocol: (§1) For Minimum Inhibitory Concentration (MIC) determinations for selected bacteria, log phase growing bacteria are re-suspended at 1×10^5 bacteria per mL in LB medium. The compound is added and two-fold dilutions are made. The final volume in the 96-well plate is about 100 μL. The plate is incubated at 37° C. in the dark with shaking. After 16 hours of incubation, growth is monitored by reading A600 or by visual inspection. MIC is defined as the minimum concentration of drug resulting in inhibition of visible growth of bacterial under the conditions described (above) in National Committee for Clinical Laboratory Standards 1993. Methods for dilution antimicrobial susceptibility tests for bacteria that grow aerobically. Approved standard M7-A3; National Committee for Clinical Laboratory Standards: Villanova, Pa.
as §1, with “MIC” for “Minimum Inhibitory Concentration (MIC)”

[3] = system: S. au; assay: Minimum Inhibitory Concentration assay, S. au; assay type: cell-based; details: LB medium, 16 hours, 37° C.
Protocol: as §1
as §1, with “MIC” for “Minimum Inhibitory Concentration (MIC)”

[4] = system: E.c(tolC); assay: Minimum Inhibitory Concentration assay, E.c(tolC); assay type: cell-based; details: 16 h, read-out: MIC (μM) E.c(tolC)
Protocol: as §1
as §1, with “MIC” for “Minimum Inhibitory Concentration (MIC)”

[5] = Table 1, compounds of Formula 1
[6] = Table 2, compounds of Formula 13

T1 sequence (P0A8V2 whole entry): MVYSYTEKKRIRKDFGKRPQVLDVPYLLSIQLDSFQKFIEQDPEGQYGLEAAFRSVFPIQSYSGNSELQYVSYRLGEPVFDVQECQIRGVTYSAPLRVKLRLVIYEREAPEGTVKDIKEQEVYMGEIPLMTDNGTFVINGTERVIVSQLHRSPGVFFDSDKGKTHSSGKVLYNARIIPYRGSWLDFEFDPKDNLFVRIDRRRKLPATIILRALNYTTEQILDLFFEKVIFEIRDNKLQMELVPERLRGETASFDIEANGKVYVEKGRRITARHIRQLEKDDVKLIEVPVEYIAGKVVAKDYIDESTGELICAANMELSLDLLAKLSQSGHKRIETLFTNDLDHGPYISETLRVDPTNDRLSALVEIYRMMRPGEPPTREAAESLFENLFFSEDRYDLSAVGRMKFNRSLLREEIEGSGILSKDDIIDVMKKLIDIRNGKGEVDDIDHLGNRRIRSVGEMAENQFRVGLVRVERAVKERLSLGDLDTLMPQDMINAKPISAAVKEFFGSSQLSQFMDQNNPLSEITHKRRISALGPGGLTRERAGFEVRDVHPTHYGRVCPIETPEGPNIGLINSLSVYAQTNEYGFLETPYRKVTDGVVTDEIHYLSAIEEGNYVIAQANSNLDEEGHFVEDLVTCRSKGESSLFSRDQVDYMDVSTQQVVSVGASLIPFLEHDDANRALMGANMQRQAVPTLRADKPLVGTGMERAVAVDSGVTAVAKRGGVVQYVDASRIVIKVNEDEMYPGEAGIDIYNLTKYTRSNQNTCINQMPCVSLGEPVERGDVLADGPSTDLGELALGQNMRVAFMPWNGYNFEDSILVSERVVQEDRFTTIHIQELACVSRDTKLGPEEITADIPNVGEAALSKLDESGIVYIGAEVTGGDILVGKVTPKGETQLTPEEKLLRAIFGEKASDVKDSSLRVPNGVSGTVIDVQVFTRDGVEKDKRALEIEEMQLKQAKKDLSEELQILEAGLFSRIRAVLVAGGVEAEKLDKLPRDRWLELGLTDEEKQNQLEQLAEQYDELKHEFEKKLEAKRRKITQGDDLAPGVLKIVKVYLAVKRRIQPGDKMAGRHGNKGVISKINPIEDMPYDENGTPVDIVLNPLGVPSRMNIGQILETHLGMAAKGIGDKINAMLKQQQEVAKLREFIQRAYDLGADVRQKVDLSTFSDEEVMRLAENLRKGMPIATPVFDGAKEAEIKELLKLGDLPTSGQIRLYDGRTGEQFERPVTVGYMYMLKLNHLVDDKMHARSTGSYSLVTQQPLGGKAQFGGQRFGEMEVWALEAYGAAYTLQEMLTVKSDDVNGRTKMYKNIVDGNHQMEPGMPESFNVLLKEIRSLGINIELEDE
T1 sequence (P0A8T7 whole entry): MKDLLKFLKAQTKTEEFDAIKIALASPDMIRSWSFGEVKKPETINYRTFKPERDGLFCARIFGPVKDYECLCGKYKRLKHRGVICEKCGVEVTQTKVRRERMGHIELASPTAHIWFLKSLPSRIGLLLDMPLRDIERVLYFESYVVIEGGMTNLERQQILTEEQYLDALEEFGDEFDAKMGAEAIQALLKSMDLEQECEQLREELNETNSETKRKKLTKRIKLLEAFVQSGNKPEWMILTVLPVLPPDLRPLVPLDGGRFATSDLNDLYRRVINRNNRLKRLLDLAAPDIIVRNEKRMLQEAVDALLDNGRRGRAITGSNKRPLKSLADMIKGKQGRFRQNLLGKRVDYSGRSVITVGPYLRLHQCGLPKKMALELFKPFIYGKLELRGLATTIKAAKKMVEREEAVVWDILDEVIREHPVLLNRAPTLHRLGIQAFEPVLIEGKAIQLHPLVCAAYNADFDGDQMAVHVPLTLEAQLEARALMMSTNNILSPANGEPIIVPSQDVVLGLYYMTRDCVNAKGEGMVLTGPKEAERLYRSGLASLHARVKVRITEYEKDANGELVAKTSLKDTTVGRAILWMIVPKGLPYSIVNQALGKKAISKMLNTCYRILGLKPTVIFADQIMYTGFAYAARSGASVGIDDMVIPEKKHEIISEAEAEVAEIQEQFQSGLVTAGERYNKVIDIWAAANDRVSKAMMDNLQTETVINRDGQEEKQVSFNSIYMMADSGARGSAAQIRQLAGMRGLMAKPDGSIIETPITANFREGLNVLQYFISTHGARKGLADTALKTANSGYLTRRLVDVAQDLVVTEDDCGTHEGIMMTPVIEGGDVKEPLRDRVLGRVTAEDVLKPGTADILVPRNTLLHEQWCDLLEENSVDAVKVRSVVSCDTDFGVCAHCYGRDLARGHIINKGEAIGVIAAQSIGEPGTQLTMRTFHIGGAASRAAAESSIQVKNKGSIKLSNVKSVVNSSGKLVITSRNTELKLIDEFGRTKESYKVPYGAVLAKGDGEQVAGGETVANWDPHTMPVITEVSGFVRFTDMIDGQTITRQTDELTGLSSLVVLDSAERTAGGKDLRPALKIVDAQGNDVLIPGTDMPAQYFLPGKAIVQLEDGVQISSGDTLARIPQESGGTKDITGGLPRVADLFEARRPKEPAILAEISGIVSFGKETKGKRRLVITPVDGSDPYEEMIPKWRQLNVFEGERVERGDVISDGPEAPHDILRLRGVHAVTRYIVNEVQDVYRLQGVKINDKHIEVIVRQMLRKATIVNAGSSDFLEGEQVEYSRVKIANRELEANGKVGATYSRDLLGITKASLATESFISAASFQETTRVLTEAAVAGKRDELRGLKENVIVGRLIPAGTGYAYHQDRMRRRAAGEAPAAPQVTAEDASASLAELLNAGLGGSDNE
T1 sequence (P0A7Z4 whole entry): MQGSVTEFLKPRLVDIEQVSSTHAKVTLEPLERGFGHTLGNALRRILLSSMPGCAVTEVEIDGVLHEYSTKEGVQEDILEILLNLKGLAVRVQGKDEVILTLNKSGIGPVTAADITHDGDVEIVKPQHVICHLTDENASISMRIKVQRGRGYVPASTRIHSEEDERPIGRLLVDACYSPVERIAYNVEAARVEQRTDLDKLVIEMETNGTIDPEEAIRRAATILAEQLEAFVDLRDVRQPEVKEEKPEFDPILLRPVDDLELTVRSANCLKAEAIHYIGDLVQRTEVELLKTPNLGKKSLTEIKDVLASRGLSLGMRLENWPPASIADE
T1 sequence (P0A800 whole entry): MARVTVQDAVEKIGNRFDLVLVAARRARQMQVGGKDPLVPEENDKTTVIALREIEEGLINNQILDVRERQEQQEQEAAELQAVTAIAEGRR

| Structure (SMILES) | pIC50 [1, 5] | MIC ([2]; Table 1) | MIC ([3]; Table 1) | MIC [4] | pIC50 [1, 6] | MIC ([2]; Table 2) | MIC ([3]; Table 2) |
| --- | --- | --- | --- | --- | --- | --- | --- |
| COc1cccc(-c2[nH]ncc2-c2ccccc2)c1 [Example 2] | < 3.30 | < 500 µM | < 500 µM | < 500 µM |  |  |  |
| Clc1ccc(-c2[nH]ncc2-c2ccccc2)cc1 [Example 3] | < 3.30 | > 500 µM | > 500 µM | > 500 µM |  |  |  |
| Clc1ccc(-c2[nH]ncc2-c2ccccc2)cc1Cl [Example 4] | < 3.30 | < 500 µM | < 500 µM | < 500 µM |  |  |  |
| Cc1ccc(-c2[nH]ncc2-c2ccccc2)cc1 [Example 5] | < 3.30 | < 500 µM | < 500 µM | < 500 µM |  |  |  |
| COc1ccc(-c2[nH]ncc2-c2ccccc2)cc1 [Example 6] | < 3.30 | < 500 µM | < 500 µM | < 500 µM |  |  |  |
| Clc1cccc(-c2cn[nH]c2-c2ccc(Cl)c(Cl)c2)c1 [Example 7] | < 3.30 | < 500 µM | < 500 µM | < 500 µM |  |  |  |
| Clc1cccc(-c2[nH]ncc2-c2ccc(Cl)c(Cl)c2)c1 [Example 8] | > 3.30 | < 500 µM | < 500 µM | < 500 µM |  |  |  |
| FC(F)(F)c1cc(-c2cn[nH]c2-c2cccc(Cl)c2)ccc1Cl [Example 9] | > 3.30 | < 500 µM | < 500 µM | < 500 µM |  |  |  |
| FC(F)(F)c1cc(-c2cn[nH]c2-c2ccccc2)ccc1Cl [Example 10] | > 3.30 | < 500 µM | < 500 µM | < 500 µM |  |  |  |
| Fc1ccc(-c2cn[nH]c2-c2cccc(Cl)c2)cc1C(F)(F)F [Example 11] | < 3.30 | < 500 µM | < 500 µM | < 500 µM |  |  |  |
| FC(F)(F)c1cc(-c2cn[nH]c2-c2cccc(Cl)c2)ccc1N1CCCC1 [Example 12] | < 3.30 | < 500 µM | < 500 µM | < 500 µM |  |  |  |
| O=c1[nH][nH]c(-c2cccc(C(F)(F)F)c2)c1-c1ccccc1 [Example 14, 4-phenyl-5-(3-trifluoromethylphenyl)-1,2-dihydropyrazol-3-one] |  |  |  | < 500 µM | > 3.30 | < 500 µM | < 500 µM |
| O=c1[nH][nH]c(-c2ccc(Cl)cc2)c1-c1ccccc1 [Example 15, 5-(4-chlorophenyl)-4-phenyl-1,2-dihydropyrazol-3-one] |  |  |  | < 500 µM | < 3.30 | < 500 µM | < 500 µM |
| O=c1[nH][nH]c(-c2ccccc2)c1-c1cccc(C(F)(F)F)c1 [Example 16, 5-phenyl-4-(3-trifluoromethylphenyl)-1,2-dihydropyrazol-3-one] |  |  |  | < 500 µM | < 3.30 | < 500 µM | < 500 µM |
| O=c1[nH][nH]c(-c2ccc(Cl)cc2)c1-c1cccc(C(F)(F)F)c1 [Example 17, 5-(4-chlorophenyl)-4-(3-trifluoromethylphenyl)-1,2-dihydropyrazol-3-one] |  |  |  | < 500 µM | > 3.30 | < 500 µM | < 500 µM |
| Fc1ccc(-c2n[nH]cc2-c2ccc(F)c(C(F)(F)F)c2)cc1 [Example 18] | > 3.30 | < 500 µM | < 500 µM | < 500 µM |  |  |  |
| CCNC1CCN(c2ccc(-c3c[nH]nc3-c3ccc(F)cc3)cc2C(F)(F)F)C1 (centres unmarked) [Example 19] | > 3.30 | < 500 µM | < 500 µM | < 500 µM |  |  |  |
